From US20050124638A1, “Benzimidazoles and analogs thereof as antivirals” (priority 2003, published 2005) come the findings set out here.

The nature of data set [1]: Single dose in vivo pharmacokinetic study. Conditions: rats, single 3.0 mg/kg IV, mean; for clearance / Vd: rat, plasma; for Vd: read-out: Vdss. How it is done: A single dose pharmacokinetic study was performed to investigate the pharmacokinetics of representative compounds. Of particular interest was […] the ability of the compounds to accumulate in liver, which is the target tissue for HCV chemotherapy as it is the primary reservoir of virus. 3-4 rats per group were administered a single dose (3 mg/kg intravenously, IV or 6 mg/kg orally, PO). Blood samples were taken at 0.25, 0.5, 1, 2, 3, 4, 6, and 8 h timepoints, and pharmacokinetic parameters calculated. Both representative compounds were rapidly distributed to tissues, as evidenced by the high clearance rates and volumes of distribution, and low levels of excretion (ca 10% of total drug in urine and feces at 8 h). Major tissues were examined for presence of drug. […] The tissue accumulation for the IV dose is shown in FIG. 1, as a function of concentration and percent of total administered dose.

A further data set has as its system female mice. Put plainly: Acute in vivo toxicity study. Conditions: 5 or 45 mg/kg i.p. for 3 days. As to the method: In the study design, 3-4 female mice/group were dosed with 0, 5 or 45 mg/kg of IBIS00553642, IBIS000408094, or IBIS00405746 for 3 days (i.p.). Clinical signs, body weights, clinical pathology, organ weights, and histopathology endpoints were evaluated.
A single dose toxicity study was performed to investigate the toxicity of representative compounds. Briefly, 3-4 female mice per group were administered 0, 5, or 45 mg/kg drug (intraperitoneal) on consecutive days for 3 days. At the end of the study, mice were sacrificed, and clinical signs, body weights, clinical pathology, organ weights, and histopathology endpoints were evaluated. […] The gross findings at necropsy were minor and limited to discolorations in liver and kidney or large gallbladder in 4/18 mice (no dose response and unclear relationship to drug). […] There were no drug-related effects on clinical pathology.

A further data set can be described thus: MTT toxicity assay. The format is cell-based. An excerpt: The color was quantified by spectrophotometric means. For each cell type a linear relationship between cell number and absorbance is established, enabling quantification of changes of proliferation.
On the technique in general: Tetrazolium assays rely on reduction of a dye to a coloured formazan, in cell work by metabolically active cells.

Data set [2] deals with HCV IRES stem IIa RNA target. Put plainly: Mass spectrometry based binding assay. Conditions: Table 8; read-out: Kd to IIa target.
The test system of data set [3] is HCV RNA levels in Ntat2ANeo replicon containing cell line. The experiment in a line: Replicon assay (Ntat2ANeo replicon cells, quantitative RT-PCR of HCV RNA). It is filed as cell-based. Conditions: Hepatitis C virus; Table 8.

The structures appear in SMILES notation. A value given as a limit tells only on which side of the number the result lay.

For `CN(C)CC1CNc2nc3ccc(OCCCN(C)Cc4ccccn4)cc3n2C1` (stereo not shown) [drawing 164], in data set [1], the clearance was 160 mL/min/kg, the Vd was determined as 137 L/kg, the “% AUC Extrap” value stood at 47% and the AUC turned out to be 165 ng·h/mL. In addition, in data set [1], the “AUC Extrap” value is 320 ng·h/mL, the Co is 219 ng/mL, the mean residence time (MRT) was determined as 2 h and the T1/2 worked out at 14 h.

Take `CN(C)CCCn1c(N)nc2ccc(OCCCN(C)Cc3ccco3)cc21`: in data set [1], the clearance was 34.5 mL/min/kg, the Vd was found to be 82.8 L/kg, the “% AUC Extrap” value is 80.0% and the AUC was 311 ng·h/mL. Further, in data set [1], the “AUC Extrap” value came to 1928 ng·h/mL, the Co turned out to be 201 ng/mL, the mean residence time MRT was determined as 3.1 h and the T1/2 was found to be 37.5 h.

Regarding `CN(CCCOc1ccc2nc(N)n(CCCN3CCCCC3)c2c1)Cc1ccc[nH]1` [IBIS00408094], in the data set on female mice, the “Clinical Signs” value is “No significant toxicity at 5 and 45 mg/kg doses”.

`CC1CCCCN1CCCn1c(N)nc2ccc(OCCCN(C)Cc3ccccn3)cc21` (stereo not shown) [IBIS00553642]: the “Clinical Signs” value with female mice was “No significant toxicity at 5 and 45 mg/kg doses”.

Turning to `CN(C)CCCn1c(N)nc2ccc(OCCCN[C@@H]3CCN(Cc4ccccc4)C3)cc21` [IBIS00405746], the “Clinical Signs” value in the data set on female mice is “No significant toxicity at 5 mg/kg dose”.

With `CN(C)CC1CNc2nc3ccc(OCCCN(C)Cc4cccs4)cc3n2C1` (stereo not shown) [IBIS00554886], the CC50 at 48 h in “MTT toxicity assay” was greater than 100 µM. In addition, in data set [2], the dissociation constant Kd was 5 µM. In data set [3], this molecule had a concentration for half-maximal inhibition (IC50) of 15.3 µM.

For orientation: clearance means a measure of how efficiently the substance is removed, as volume per time. A high value points to a high capacity for elimination. A word on the AUC: it is concentration integrated over time. A lower AUC goes with less exposure. As usually defined, the MRT is a mean duration of stay, worked out from the concentration-time curve. As usually defined, the CC50 is the concentration giving 50% cytotoxicity. Low readings indicate harm at low concentration, high ones better tolerance by the cells. As a reminder, the Kd is the concentration at which binding is half-saturated. A word on the IC50: it is the concentration that gives 50% inhibition.
